Measured values from ChEMBL document CHEMBL1201862, “PubChem BioAssay data set” (2004).
The source made the active and inactive calls.

Experiments:
[1] = molecular target: Cyclin-dependent kinase 5/CDK5 activator 1 (Homo sapiens, UniProt Q00535); assay: blockade of human CDK5 activity – biochemical, cherry-picked samples, set 2, dose response (AID 504545)
[2] = Luminescence Cell-Based Dose Response HTS to Identify Activators of Luciferase Translation or Activity in H4 […] Cells. [Related pubchem assays: 1829 (Project Summary), 1814 (Primary HTS)]; format: functional
X-box-binding protein 1 = X-box-binding protein 1 (Homo sapiens, UniProt P17861); format: functional, Cricetulus griseus;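 note: confirmatory dose-response counter-screen serving a CHOP assay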
Sequence of X-box-binding protein 1 (P17861 whole entry): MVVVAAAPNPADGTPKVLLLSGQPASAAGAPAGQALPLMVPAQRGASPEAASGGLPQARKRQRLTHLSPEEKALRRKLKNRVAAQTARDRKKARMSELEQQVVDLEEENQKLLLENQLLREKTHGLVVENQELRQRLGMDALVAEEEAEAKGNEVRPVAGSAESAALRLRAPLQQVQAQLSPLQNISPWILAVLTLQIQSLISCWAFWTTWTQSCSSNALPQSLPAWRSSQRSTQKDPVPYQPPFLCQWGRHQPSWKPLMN

[3] = Luminescence Cell-Based Dose Retest to Confirm Inhibitors of Cancer Stem Cells. [Related pubchem assays (depositor defined):AID2717, AID2721]; format: functional; details: Homo sapiens
[4] = molecular target: T1, Corticotropin-releasing factor receptor 2/Corticotropin-releasing factor-binding protein (Homo sapiens, UniProt P24387+Q13324); assay: Dose Response confirmation of uHTS hits for small molecule antagonists of the CRF-binding protein and CRF-R2 receptor complex.; format: functional; details: read-out: IC50_Mean
T1 sequence (Q13324 whole entry): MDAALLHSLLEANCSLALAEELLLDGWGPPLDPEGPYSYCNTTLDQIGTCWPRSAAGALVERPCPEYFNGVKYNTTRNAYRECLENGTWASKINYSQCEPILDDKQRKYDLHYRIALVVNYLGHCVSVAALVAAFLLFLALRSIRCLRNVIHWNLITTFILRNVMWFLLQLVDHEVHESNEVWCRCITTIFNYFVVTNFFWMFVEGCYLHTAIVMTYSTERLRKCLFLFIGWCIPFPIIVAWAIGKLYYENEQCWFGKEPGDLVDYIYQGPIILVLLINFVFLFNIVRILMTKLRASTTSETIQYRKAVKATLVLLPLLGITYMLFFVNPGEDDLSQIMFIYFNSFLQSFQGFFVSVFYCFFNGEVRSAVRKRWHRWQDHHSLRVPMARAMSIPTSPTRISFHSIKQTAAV
T1 sequence (P24387 whole entry): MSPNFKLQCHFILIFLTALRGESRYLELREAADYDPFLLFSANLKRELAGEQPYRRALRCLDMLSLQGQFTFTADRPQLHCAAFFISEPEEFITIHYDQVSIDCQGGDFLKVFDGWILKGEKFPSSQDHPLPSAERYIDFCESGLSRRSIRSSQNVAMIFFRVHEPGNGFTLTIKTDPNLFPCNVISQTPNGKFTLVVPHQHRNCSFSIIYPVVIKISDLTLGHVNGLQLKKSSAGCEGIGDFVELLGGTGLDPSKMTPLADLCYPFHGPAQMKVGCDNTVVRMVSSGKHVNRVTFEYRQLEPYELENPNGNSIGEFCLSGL

[5] = molecular target: Nucleotide-binding oligomerization domain-containing protein 2 (Homo sapiens, UniProt Q9HC29); assay: PubChem AID 2334; format: functional
Sequence of Nucleotide-binding oligomerization domain-containing protein 2 (Q9HC29 whole entry, the tested form may be a part): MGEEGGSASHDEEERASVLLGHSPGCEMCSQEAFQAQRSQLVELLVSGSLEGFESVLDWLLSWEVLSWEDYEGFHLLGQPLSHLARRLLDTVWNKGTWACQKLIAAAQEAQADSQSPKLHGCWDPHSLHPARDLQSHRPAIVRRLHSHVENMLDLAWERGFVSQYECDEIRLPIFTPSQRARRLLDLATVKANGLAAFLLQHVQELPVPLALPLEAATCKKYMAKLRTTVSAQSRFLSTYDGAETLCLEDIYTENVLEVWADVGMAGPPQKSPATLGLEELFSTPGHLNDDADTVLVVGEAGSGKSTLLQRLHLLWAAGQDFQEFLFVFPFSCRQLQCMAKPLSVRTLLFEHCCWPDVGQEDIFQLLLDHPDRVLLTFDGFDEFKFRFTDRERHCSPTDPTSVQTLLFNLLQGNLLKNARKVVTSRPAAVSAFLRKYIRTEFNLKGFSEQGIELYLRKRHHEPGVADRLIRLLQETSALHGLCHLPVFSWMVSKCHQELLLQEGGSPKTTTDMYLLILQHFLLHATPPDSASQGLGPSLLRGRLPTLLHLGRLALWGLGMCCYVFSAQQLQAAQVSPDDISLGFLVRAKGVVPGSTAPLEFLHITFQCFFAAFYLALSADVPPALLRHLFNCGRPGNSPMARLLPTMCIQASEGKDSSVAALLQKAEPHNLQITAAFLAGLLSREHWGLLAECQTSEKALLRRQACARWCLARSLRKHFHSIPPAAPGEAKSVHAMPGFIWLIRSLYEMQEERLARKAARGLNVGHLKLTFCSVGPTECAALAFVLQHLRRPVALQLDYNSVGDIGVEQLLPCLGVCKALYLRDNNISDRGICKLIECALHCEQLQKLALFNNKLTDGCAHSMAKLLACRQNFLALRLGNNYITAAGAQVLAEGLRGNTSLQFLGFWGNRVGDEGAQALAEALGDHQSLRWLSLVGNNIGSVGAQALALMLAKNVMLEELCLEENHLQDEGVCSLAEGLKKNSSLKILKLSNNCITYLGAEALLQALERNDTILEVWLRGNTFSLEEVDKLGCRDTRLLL

[6] = molecular target: T1, Corticotropin-releasing factor receptor 2/Corticotropin-releasing factor-binding protein; assay: activators of CRF receptor 2 with binding protein – uHTS hits, confirmation (AID 602473); format: functional; details: read-out: EC50_Mean
Tumor necrosis factor = Tumor necrosis factor (Homo sapiens, UniProt P01375); assay: analog potency on TNFa NF-kB signaling – cell-based, revised, SAR follow-up (AID 2337); format: functional
Sequence of Tumor necrosis factor (P01375 whole entry): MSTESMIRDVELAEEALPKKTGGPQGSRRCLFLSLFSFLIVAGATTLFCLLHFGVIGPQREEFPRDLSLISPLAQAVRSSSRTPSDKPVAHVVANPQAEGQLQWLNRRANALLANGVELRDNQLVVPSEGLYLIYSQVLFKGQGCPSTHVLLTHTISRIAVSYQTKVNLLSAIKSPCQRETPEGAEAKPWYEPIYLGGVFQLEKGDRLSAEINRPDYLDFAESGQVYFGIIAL

Streptokinase A = molecular target: T2, Streptokinase A (Streptococcus pyogenes serotype M1, UniProt P10520); assay: viability-normalized secreted streptokinase activity reduction – plasminogen activation absorbance, OD405, dose response (AID 1914); format: functional, Streptococcus pyogenes M1 GAS;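 note: secreted streptokinase activity via plasminogen activation per viability signal from cell pellet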
T2 sequence (P10520 whole entry): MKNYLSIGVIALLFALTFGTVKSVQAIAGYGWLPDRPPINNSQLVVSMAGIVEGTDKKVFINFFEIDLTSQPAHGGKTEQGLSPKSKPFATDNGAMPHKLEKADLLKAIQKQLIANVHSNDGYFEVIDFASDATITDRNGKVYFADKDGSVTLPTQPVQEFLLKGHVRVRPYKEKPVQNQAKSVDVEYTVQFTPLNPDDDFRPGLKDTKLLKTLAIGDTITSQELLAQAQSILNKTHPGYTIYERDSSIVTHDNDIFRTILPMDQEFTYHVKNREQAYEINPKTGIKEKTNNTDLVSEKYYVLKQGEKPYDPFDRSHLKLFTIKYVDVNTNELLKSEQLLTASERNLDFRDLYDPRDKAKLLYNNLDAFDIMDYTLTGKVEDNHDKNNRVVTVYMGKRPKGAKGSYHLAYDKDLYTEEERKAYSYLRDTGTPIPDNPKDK

[7] = molecular target: T3, Nucleotide-binding oligomerization domain-containing protein 1 (Homo sapiens, UniProt Q9Y239); assay: blockers of NOD1 pathway activity – revised, SAR follow-up (AID 2333); format: functional
T3 sequence (Q9Y239 whole entry): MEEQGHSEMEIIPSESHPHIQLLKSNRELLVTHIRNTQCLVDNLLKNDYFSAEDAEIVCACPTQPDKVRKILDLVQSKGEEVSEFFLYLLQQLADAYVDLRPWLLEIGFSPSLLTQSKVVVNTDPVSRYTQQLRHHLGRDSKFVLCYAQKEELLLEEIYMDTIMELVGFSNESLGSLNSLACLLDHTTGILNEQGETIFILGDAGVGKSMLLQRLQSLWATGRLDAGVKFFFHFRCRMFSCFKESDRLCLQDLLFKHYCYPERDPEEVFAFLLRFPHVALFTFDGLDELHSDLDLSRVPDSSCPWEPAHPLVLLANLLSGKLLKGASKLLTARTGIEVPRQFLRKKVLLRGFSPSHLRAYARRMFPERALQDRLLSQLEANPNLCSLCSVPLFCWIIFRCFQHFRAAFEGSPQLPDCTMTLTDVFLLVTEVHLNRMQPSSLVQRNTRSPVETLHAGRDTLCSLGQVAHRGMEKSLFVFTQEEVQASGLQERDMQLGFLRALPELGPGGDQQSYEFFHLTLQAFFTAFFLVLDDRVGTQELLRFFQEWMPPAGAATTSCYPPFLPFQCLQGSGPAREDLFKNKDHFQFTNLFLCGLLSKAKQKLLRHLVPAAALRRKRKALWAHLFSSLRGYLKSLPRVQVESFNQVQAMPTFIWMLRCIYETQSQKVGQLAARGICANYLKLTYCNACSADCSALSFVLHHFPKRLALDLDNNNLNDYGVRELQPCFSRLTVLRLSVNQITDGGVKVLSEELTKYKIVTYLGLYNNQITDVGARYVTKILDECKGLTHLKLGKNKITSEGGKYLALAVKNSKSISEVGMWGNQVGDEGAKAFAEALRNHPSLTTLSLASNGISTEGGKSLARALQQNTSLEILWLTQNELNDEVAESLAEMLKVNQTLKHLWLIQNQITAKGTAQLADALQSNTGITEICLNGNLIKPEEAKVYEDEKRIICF

[8] = molecular target: DNA dC->dU-editing enzyme APOBEC-3G (Homo sapiens, UniProt Q9HC16); assay: Dose Response confirmation of small molecule APOBEC3G DNA Deaminase Inhibitors via a fluorescence-based single-stranded DNA deaminase assay. [Related pubchem assays (depositor defined):AID493012, AID493028]; format: functional
Sequence of DNA dC->dU-editing enzyme APOBEC-3G (Q9HC16 whole entry): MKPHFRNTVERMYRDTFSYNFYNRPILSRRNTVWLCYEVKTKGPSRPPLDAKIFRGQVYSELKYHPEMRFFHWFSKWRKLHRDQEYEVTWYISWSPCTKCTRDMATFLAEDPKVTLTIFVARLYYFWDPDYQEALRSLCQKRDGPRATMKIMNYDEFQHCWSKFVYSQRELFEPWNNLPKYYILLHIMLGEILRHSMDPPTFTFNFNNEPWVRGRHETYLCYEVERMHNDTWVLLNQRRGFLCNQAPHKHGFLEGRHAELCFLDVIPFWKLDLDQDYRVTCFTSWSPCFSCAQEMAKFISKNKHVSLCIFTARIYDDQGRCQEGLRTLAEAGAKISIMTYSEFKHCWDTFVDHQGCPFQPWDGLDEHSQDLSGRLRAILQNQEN

[9] = molecular target: Neuropeptides B/W receptor type 1 (Homo sapiens, UniProt P48145); assay: Fluorescence-based dose response cell-based high throughput screening assay to identify antagonists of the G-protein coupled receptor 7 (GPR7). [Related pubchem assays: 1952 (Screening assay (GPR7 antagonists).), 1880 (Summary AID.)]; format: functional
Sequence of Neuropeptides B/W receptor type 1 (P48145 whole entry): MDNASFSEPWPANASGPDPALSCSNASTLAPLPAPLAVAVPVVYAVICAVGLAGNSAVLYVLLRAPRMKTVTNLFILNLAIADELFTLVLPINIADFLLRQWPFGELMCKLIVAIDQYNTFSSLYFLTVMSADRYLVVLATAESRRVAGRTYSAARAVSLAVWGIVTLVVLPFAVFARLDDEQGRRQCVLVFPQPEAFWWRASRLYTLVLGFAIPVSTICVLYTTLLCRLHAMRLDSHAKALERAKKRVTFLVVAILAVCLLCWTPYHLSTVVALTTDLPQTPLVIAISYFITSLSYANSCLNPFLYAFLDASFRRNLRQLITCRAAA

[10] = molecular target: Melanin-concentrating hormone receptor 1 (Homo sapiens, UniProt Q99705); assay: Fluorescence-based counterscreen for antagonists of the G-protein coupled receptor 7 (GPR7): cell-based high throughput dose response assay to identify antagonists of the melanin-concentrating hormone receptor 1 (MCHR1).; format: functional
Sequence of Melanin-concentrating hormone receptor 1 (Q99705 whole entry): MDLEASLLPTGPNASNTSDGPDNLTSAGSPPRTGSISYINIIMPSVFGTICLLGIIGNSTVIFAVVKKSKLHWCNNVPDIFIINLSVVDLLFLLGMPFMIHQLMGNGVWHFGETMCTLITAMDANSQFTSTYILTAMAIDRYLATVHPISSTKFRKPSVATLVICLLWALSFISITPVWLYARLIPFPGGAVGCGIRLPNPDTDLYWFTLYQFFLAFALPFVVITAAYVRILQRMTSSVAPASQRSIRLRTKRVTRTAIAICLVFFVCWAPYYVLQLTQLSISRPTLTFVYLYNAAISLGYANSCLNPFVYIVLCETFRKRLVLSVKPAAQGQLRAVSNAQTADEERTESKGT

[11] = alpha-synuclein stem-loop translation blockers – luminescence, H4 neuroglioblastoma cells, dose confirmation, confirmation (AID 2454); format: functional, cell-based;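 note: H4 neuroglioblastoma cells carrying an alpha-synuclein 5'UTR luciferase reporter; potency for inhibition of the luciferase signal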
[12] = THP-1 cell cytotoxicity, dose response, cytotoxicity control for non-replicating M. tuberculosis project (AID 489025); format: functional
[13] = molecular target: T4, DNA repair and recombination protein RAD54-like (Homo sapiens, UniProt Q92698); assay: RAD54 Holliday junction migration blockers – biochemical, fluorescence, cherry-picked samples, dose series, confirmation (AID 651657); format: functional
T4 sequence (Q92698 whole entry): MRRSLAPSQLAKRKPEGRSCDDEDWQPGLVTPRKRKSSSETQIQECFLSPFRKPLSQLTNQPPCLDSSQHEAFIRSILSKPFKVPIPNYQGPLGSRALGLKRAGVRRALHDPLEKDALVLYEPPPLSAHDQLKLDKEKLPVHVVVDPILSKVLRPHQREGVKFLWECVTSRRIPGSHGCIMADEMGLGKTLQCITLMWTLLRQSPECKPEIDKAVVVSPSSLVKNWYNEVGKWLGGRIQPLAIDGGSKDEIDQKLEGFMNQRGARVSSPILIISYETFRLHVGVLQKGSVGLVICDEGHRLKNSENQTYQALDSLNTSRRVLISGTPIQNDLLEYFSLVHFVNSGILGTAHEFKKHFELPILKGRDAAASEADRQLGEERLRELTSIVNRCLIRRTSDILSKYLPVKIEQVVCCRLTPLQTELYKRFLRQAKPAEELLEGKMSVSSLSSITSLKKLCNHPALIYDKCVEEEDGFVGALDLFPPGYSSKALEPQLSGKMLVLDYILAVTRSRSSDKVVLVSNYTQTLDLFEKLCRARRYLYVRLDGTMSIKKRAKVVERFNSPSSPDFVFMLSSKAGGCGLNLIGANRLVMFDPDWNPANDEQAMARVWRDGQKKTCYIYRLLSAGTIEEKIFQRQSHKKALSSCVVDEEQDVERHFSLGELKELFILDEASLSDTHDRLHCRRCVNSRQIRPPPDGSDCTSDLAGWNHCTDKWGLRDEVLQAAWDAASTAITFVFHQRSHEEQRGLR

[14] = luciferase reporter signal suppression in cells – H4 neuroglioma cells, luminescence, dose response (AID 1990); format: functional, cell-based
[15] = molecular target: T5, Heat shock factor protein 1 (Mus musculus, UniProt P38532); assay: enhancement of HSF1-driven luciferase signal – cell-based, NIH3T3, luminescence, dose retest, confirmation (AID 435004); format: functional;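 note: stress induced by proteasome inhibitor MG132 added 30 min after compound; luciferase reporter driven by HSF1 response element in NIH3T3 cells; actives raise luminescence as potentiators of the MG132 stress response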
T5 sequence (P38532 whole entry): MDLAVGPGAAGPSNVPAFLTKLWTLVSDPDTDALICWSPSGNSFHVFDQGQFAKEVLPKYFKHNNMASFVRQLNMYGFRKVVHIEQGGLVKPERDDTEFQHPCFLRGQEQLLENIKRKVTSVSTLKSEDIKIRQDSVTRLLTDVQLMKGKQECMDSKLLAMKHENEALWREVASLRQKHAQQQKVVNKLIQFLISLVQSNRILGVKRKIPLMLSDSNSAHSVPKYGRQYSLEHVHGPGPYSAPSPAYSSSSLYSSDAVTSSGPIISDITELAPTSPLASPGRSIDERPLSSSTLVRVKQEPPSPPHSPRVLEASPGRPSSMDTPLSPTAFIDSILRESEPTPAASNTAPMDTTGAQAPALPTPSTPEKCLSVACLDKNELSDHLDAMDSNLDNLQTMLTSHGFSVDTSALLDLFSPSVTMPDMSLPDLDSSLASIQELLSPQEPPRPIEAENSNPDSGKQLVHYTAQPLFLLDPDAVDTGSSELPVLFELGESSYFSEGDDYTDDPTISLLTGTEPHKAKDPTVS

[16] = test system: Streptococcus sp. 'group A'; assay: Streptococcus pyogenes SK(-)GAS viability under kanamycin – luminescence, BacTiterGlo, confirmation, counter-screen for streptokinase expression inhibitor project, dose response (AID 1900); format: functional, organism-based
[17] = Vero E6 cell cytotoxicity, dose response, cytotoxicity control for non-replicating M. tuberculosis project, secondary assay (AID 492998); format: functional, VeroE6; details: Vero C1008
Streptococcus = assay: GAS UMAA2166 growth inhibition – luminescence, BacTiterGlo, counter-screen for streptokinase expression inhibitor project, dose response (AID 1915); format: functional, organism-based;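 note: potency for reduction of bacterial viability or growth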
[18] = luciferase reporter signal reduction – luminescence, H4-C neuroglioblastoma cells, dose response (AID 2458); format: functional, cell-based;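 note: H4 neuroglioblastoma cells stably carrying a luciferase reporter gene fusion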
cells [19] = format: functional, cell-based
[20] = HEK-293T viability loss after treatment – luminescence, T-cell screen hits, cytotoxicity control for TCR NF-kB inhibitor project, dose response (AID 489026); format: functional, cell-based;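 note: cells exposed to compound about 14 hours before the viability readout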
[21] = HepG2 cell cytotoxicity, dose response, cytotoxicity control for non-replicating M. tuberculosis project (AID 489018); format: functional; details: Mycobacterium tuberculosis
cells [22] = format: functional
[23] = alpha-synuclein stem-loop luciferase translation blockers – H4 neuroglioma cells, luminescence, confirmation (AID 1988); format: functional, cell-based

Sequence of Cyclin-dependent kinase 5/CDK5 activator 1 (Q00535 whole entry): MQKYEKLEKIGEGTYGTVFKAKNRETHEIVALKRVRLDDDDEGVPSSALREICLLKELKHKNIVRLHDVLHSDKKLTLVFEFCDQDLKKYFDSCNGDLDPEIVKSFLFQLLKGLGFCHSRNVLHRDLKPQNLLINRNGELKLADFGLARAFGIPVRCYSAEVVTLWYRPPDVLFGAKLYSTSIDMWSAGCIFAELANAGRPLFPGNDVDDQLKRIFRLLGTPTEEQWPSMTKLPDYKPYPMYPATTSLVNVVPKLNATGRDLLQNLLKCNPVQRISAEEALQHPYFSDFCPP
Sequence of Cyclin-dependent kinase 5/CDK5 activator 1 (Q15078 whole entry, further chain): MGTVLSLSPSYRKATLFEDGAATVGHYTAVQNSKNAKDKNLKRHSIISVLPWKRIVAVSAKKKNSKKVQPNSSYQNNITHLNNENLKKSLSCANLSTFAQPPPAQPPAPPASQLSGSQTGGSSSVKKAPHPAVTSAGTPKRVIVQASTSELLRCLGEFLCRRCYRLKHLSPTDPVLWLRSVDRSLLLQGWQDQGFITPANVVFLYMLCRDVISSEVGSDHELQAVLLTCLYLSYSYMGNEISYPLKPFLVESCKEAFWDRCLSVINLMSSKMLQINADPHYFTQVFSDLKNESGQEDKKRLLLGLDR

Structure (SMILES): Nc1nc(Nc2ccccc2F)sc1C(=O)c1ccccc1
- AC50 [1]: 60 µM (active)
- EC50 [2]: 0.159 µM (active)

Structure (SMILES): Cc1[nH]c2ccccc2c1/C=N/NC(=O)C1CC1(c1ccccc1)c1ccccc1 (stereo not drawn)
- Absolute IC50 (XBP1) (X-box-binding protein 1): 10 µM
- AC50 [3]: 3.79 µM (active)

Structure (SMILES): Cc1ccc(SCc2cc(=O)[nH]c(SCC(=O)Nc3cc(Cl)ccc3Cl)n2)cc1
- IC50 [4]: 5.65 µM (active)
- IC50 [5]: 9.95 µM (active)
- EC50 [6]: > 53 µM (inactive)
- IC50 (Tumor necrosis factor): 8.65 µM (active)
- EC50 (Streptokinase A): 42.6 µM (inconclusive)
- IC50 [7]: 7.37 µM (active)

Structure (SMILES): CC(=O)c1sc2nsc(SCCN3CCOCC3)c2c1N
- IC50 [8]: 34.4 µM (active)

Structure (SMILES): Cc1cccc(Nc2nc(N)c([N+](=O)[O-])c(NCCO)n2)c1
- AC50 [1]: 15.2 µM (active)

Structure (SMILES): O=C(NC1CCCCCCC1)C1c2ccccc2C(=O)N1Cc1cccs1 (stereo not drawn)
- IC50 [9]: > 43.8 µM (not active)
- IC50 [10]: 15.9 µM (not active)

Structure (SMILES): COC(=O)c1c(NC(=O)c2ccc([N+](=O)[O-])o2)sc2c1CCN(C(C)C)C2
- EC50 [11]: 1.52 µM (active)
- CC50 [12]: 1.5 µM (active)
- AC50 [13]: 43.4 µM (active)
- EC50 [14]: > 120 µM (not active)
- EC50 [15]: 26 µM (active)
- EC50 [16]: 4.11 µM (active)
- CC50 [17]: 0.37 µM (active)
- EC50 (Streptococcus): 7.32 µM (active)
- EC50 [18]: 1.29 µM (active)
- EC50 (cells [19]): 11.8 µM (active)
- IC50 [20]: > 80 µM (inactive)
- CC50 [21]: 6.72 µM (active)
- IC50 (cells [22]): 0.65 µM (active)
- EC50 [23]: < 0.1 µM (active)
